Target: T1, BA/F3-FLT3-ITD + F691L cells (Homo sapiens, UniProt P36888, F691L, cells depend on it, form not given)
T1 sequence (P36888 1-993 F691L): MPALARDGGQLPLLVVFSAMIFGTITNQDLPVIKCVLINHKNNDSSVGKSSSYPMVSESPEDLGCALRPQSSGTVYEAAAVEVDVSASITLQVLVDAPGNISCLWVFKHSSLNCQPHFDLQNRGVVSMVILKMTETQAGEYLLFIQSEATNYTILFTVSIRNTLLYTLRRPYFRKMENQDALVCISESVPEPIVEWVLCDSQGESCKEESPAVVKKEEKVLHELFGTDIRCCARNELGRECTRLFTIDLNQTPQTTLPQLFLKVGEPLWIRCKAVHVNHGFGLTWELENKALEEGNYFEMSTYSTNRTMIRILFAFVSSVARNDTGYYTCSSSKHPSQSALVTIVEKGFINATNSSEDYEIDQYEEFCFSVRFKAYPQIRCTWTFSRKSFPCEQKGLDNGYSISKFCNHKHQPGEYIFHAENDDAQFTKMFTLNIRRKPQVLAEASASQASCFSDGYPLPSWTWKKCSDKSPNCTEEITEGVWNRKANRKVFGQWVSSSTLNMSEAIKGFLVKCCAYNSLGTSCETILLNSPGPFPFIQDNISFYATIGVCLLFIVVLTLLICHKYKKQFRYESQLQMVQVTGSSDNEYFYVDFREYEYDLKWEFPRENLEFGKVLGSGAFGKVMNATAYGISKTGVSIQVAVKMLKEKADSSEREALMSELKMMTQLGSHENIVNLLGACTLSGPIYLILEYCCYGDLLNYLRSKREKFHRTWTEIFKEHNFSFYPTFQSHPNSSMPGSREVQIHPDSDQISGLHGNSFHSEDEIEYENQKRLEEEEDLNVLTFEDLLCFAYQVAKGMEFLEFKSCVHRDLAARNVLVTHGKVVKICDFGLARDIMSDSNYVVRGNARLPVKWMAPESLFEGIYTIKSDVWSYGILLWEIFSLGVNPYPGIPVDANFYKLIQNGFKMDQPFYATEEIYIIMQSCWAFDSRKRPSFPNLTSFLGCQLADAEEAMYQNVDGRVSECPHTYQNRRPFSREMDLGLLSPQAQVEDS
Test: BA/F3-FLT3-ITD + F691L cell proliferation assay (CellTiter-Glo)
Assay type: cell-based, murine
Conditions: BaF3 FLT3 ITD/F691L cells; read-out: Cell Activity (IC50 μM) BaF3_FLT3_ITD/F691L
Source text: The FLT3 inhibitors may also be assessed using leukemia cell lines that express endogenous FLT3-ITD or cells that are engineered to express wild-type or mutant FLT3. The cells expressing endogenous FLT3 are dependent upon FLT3 catalytic activity for growth. For the engineered cells, murine BA/F3 cells were transfected with full-length FLT3 (either wild-type, or containing the ITD, D835Y, or F691L mutations, as noted). The parental BA/F3 cells are dependent upon Interleukin-3 (IL-3) for survival, and introduction of the FLT3 constructs renders these cells dependent upon FLT3 kinase activity when cultured in the absence of IL-3. Engineered BA/F3 cell growth assays can be performed in either the absence or presence of IL-3, to assess the compound inhibition of FLT3 or to detect the presence of off-target activity, respectively. Inhibitors of FLT3 kinase activity reduce or eliminate the FLT3 oncogenic signaling, resulting in reduced cell proliferation. This inhibition is measured as a function of compound concentration to assess IC50 values.
Cells were seeded at 1×10^4 cells per well of a 96 well cell culture plate in 50 μl of cell culture medium. Compounds were dissolved in DMSO, typically at a concentration of 5 mM and were serially diluted 1:3 for a total of eight points and added to the cells to final concentrations of 10, 3.3, 1.1, 0.37, 0.12, 0.041, 0.014 and 0.0046 μM in 100 μl cell culture medium (final concentration 0.2% DMSO). […] The cells were incubated at 37° C., 5% CO2 for three days. CellTiter-Glo Buffer (Promega Cell Viability Assay catalog #G7573) and substrate were equilibrated to room temperature, and enzyme/substrate Recombinant Firefly Luciferase/Beetle Luciferin was reconstituted. The cell plates were equilibrated to room temperature for 30 minutes, then lysed by addition of an equivalent volume of the Celltiter-Glo Reagent. The plate was mixed for 10 minutes on a plate shaker to lyse the cells. The plates were read on a Tecan M1000 using Luminescence protocol modified to read 0.1 s per well. The luminescence reading assesses the ATP content, which correlates directly with cell number such that the reading as a function of compound concentration was used to determine the IC50 value.

SMILES | GI50
COC(=O)N1CCCC(n2cnc3ccc(-c4c[nH]c5ncc(-c6ccnc(OC)c6)nc45)cc32)C1 (centres unmarked) [P-261, methyl 3-(6-(2-(2-methoxypyridin-4-yl)-5H-pyrrolo[2,3-b]pyrazin-7-yl)-1H-benzo[d]imidazol-1-yl)piperidine-1-carboxylate] | 0.0001 to 1 µM
COc1cc(-c2cnc3[nH]cc(-c4ccc5ncn(C(C)(C)CO)c5c4)c3n2)ccn1 [P-186, 2-[6-[2-(2-methoxy-4-pyridyl)-5H-pyrrolo[2,3-b]pyrazin-7-yl]benzimidazol-1-yl]-2-methyl-propan-1-ol] | 0.0001 to 1 µM
CC(C)(C)n1cnc2ccc(-c3c[nH]c4ncc(-c5cnn(CC(F)(F)F)c5)cc34)cc21 [P-252, 1-tert-butyl-6-[5-[1-(2,2,2-trifluoroethyl)pyrazol-4-yl]-1H-pyrrolo[2,3-b]pyridin-3-yl]benzimidazole] | 0.0001 to 1 µM
CCCS(=O)(=O)Nc1cccc(-c2cnc3[nH]cc(-c4ccc5ncn(C(C)(C)C)c5c4)c3c2)c1 [P-216, N-[3-[3-(3-tert-butylbenzimidazol-5-yl)-1H-pyrrolo[2,3-b]pyridin-5-yl]phenyl]propane-1-sulfonamide] | 0.0001 to 1 µM
c1cc(N2CCOCC2)ccc1-c1cnc2[nH]cc(-c3ccc4ncn(C5CCCNC5)c4c3)c2n1 (centres unmarked) [P-101, 4-[4-[7-[3-(3-piperidyl)benzimidazol-5-yl]-5H-pyrrolo[2,3-b]pyrazin-2-yl]phenyl]morpholine] | 0.0001 to 1 µM
C#Cc1cnc2[nH]cc(-c3ccc4ncn(C(C)(C)C)c4c3)c2n1 [P-259, 7-(3-tert-butylbenzimidazol-5-yl)-2-ethynyl-5H-pyrrolo[2,3-b]pyrazine] | 0.0001 to 1 µM
COc1ncc(-c2cnc3[nH]cc(-c4ccc5ncn(C(C)C)c5c4)c3c2)cn1 [P-269, 1-isopropyl-6-[5-(2-methoxypyrimidin-5-yl)-1H-pyrrolo[2,3-b]pyridin-3-yl]benzimidazole] | 0.0001 to 1 µM
O=S1(=O)CCCCN1c1cccc(-c2cnc3[nH]cc(-c4ccc5ncn(C6CCCNC6)c5c4)c3n2)c1 (centres unmarked) [P-253, 2-[3-[7-[3-(3-piperidyl)benzimidazol-5-yl]-5H-pyrrolo[2,3-b]pyrazin-2-yl]phenyl]thiazinane 1,1-dioxide] | 0.0001 to 1 µM
C(#Cc1cnc2[nH]cc(-c3ccc4ncn(C5CCCNC5)c4c3)c2n1)c1ccccc1 (centres unmarked) [P-248, 2-(2-phenylethynyl)-7-[3-(3-piperidyl)benzimidazol-5-yl]-5H-pyrrolo[2,3-b]pyrazine] | 0.0001 to 1 µM
CC(C)(C)n1cnc2ccc(-c3c[nH]c4ncc(C#Cc5cccc(OC(F)(F)F)c5)nc34)cc21 [P-249, 7-(3-tert-butylbenzimidazol-5-yl)-2-[2-[3-(trifluoromethoxy)phenyl]ethynyl]-5H-pyrrolo[2,3-b]pyrazine] | 1 to 10 µM
CC(C)(C)n1cnc2ccc(-c3c[nH]c4ncc(C(=O)Nc5cccc(C#N)c5)cc34)cc21 [P-218, 3-(3-tert-butylbenzimidazol-5-yl)-N-(3-cyanophenyl)-1H-pyrrolo[2,3-b]pyridine-5-carboxamide] | 0.0001 to 1 µM
FC(F)(F)Oc1cccc(-c2cnc3[nH]cc(-c4ccc5ncn(C6CCCNC6)c5c4)c3n2)c1 (centres unmarked) [P-193, 7-[3-(3-piperidyl)benzimidazol-5-yl]-2-[3-(trifluoromethoxy)phenyl]-5H-pyrrolo[2,3-b]pyrazine] | 0.0001 to 1 µM
N#Cc1cccc(C(=O)Nc2cnc3[nH]cc(-c4ccc5ncn(C6CCCNC6)c5c4)c3c2)c1 (centres unmarked) [P-236, 3-cyano-N-[3-[3-(3-piperidyl)benzimidazol-5-yl]-1H-pyrrolo[2,3-b]pyridin-5-yl]benzamide] | 0.0001 to 1 µM
c1cc(-c2cnc3[nH]cc(-c4ccc5ncn(C6CCCNC6)c5c4)c3n2)cc(N2CCOCC2)n1 (centres unmarked) [P-262, 4-[4-[7-[3-(3-piperidyl)benzimidazol-5-yl]-5H-pyrrolo[2,3-b]pyrazin-2-yl]-2-pyridyl]morpholine] | 0.0001 to 1 µM
C#Cc1cnc2[nH]cc(-c3ccc4ncn(C5CCCNC5)c4c3)c2n1 (centres unmarked) [P-270, 2-ethynyl-7-[3-(3-piperidyl)benzimidazol-5-yl]-5H-pyrrolo[2,3-b]pyrazine] | 0.0001 to 1 µM
N#Cc1cccc(NC(=O)c2cnc3[nH]cc(-c4ccc5ncn(C6CCCNC6)c5c4)c3c2)c1 (centres unmarked) [P-219, N-(3-cyanophenyl)-3-(1-(piperidin-3-yl)-1H-benzo[d]imidazol-6-yl)-1H-pyrrolo[2,3-b]pyridine-5-carboxamide] | 1 to 10 µM
CN(c1cccc(-c2cnc3[nH]cc(-c4ccc5ncn(C)c5c4)c3n2)c1)S(C)(=O)=O [P-150, N-methyl-N-[3-[7-(3-methylbenzimidazol-5-yl)-5H-pyrrolo[2,3-b]pyrazin-2-yl]phenyl]methanesulfonamide] | 0.0001 to 1 µM
COc1cnc2[nH]cc(-c3ccc4ncn(-c5ccc(F)cc5)c4c3)c2c1 [P-103, 1-(4-fluorophenyl)-6-(5-methoxy-1H-pyrrolo[2,3-b]pyridin-3-yl)benzimidazole] | 0.0001 to 1 µM
COc1ncc(-c2cnc3[nH]cc(-c4ccc5ncn(C(C)(C)C)c5c4)c3n2)cn1 [P-263, 7-(3-tert-butylbenzimidazol-5-yl)-2-(2-methoxypyrimidin-5-yl)-5H-pyrrolo[2,3-b]pyrazine] | 0.0001 to 1 µM
CC(C)(C)n1cnc2ccc(-c3c[nH]c4ncc(-c5cccc(N6CCOCC6)c5)nc34)cc21 [P-226, 4-[3-[7-(3-tert-butylbenzimidazol-5-yl)-5H-pyrrolo[2,3-b]pyrazin-2-yl]phenyl]morpholine] | 0.0001 to 1 µM
CC(C)(C)n1cnc2ccc(-c3c[nH]c4ncc(-c5cccc(S(=O)(=O)N6CCCC6)c5)nc34)cc21 [P-229, 7-(3-tert-butylbenzimidazol-5-yl)-2-(3-pyrrolidin-1-ylsulfonylphenyl)-5H-pyrrolo[2,3-b]pyrazine] | 0.0001 to 1 µM
CCCS(=O)(=O)Nc1cccc(-c2cnc3[nH]cc(-c4ccc5ncn(C(C)(C)C)c5c4)c3n2)c1 [P-225, N-[3-[7-(3-tert-butylbenzimidazol-5-yl)-5H-pyrrolo[2,3-b]pyrazin-2-yl]phenyl]propane-1-sulfonamide] | 0.0001 to 1 µM
CC(C)(C)n1cnc2ccc(-c3c[nH]c4ncc(-c5cccc(N6CCCCS6(=O)=O)c5)cc34)cc21 [P-221, 2-[3-[3-(3-tert-butylbenzimidazol-5-yl)-1H-pyrrolo[2,3-b]pyridin-5-yl]phenyl]thiazinane 1,1-dioxide] | 0.0001 to 1 µM
N#Cc1cc(-c2cnc3[nH]cc(-c4ccc5ncn(C6CCCNC6)c5c4)c3n2)ccc1F (centres unmarked) [P-238, 2-fluoro-5-[7-[3-(3-piperidyl)benzimidazol-5-yl]-5H-pyrrolo[2,3-b]pyrazin-2-yl]benzonitrile] | 0.0001 to 1 µM
FC(F)n1cc(-c2cnc3[nH]cc(-c4ccc5ncn(C6CCCNC6)c5c4)c3n2)cn1 (centres unmarked) [P-257, 2-[1-(difluoromethyl)pyrazol-4-yl]-7-[3-(3-piperidyl)benzimidazol-5-yl]-5H-pyrrolo[2,3-b]pyrazine] | 0.0001 to 1 µM
CC(C)n1cnc2ccc(-c3c[nH]c4ncc(-c5cnn(CC(F)(F)F)c5)cc34)cc21 [P-268, 1-isopropyl-6-[5-[1-(2,2,2-trifluoroethyl)pyrazol-4-yl]-1H-pyrrolo[2,3-b]pyridin-3-yl]benzimidazole] | 0.0001 to 1 µM
